Results from patent US10732172B1, “Methods, systems, and compositions for determining blood clot formation, and uses thereof” (President and Fellows of Harvard College, priority 2015, dated 2020).
Entries after “also recorded” stand apart in the source; their conditions may differ.

Tests used:
[1] = tested on: platelets and endothelium in LPS-stimulated lung-on-a-chip (PAR-1); assay: Platelet-endothelial dynamics (P-E) in LPS-stimulated lung-on-a-chip with PM2; assay type: cell-based, human
Description: (§1) Specifically, the analysis includes a method to quantitate platelet function in flow chambers and microfluidic devices that has been primarily limited to analyzing platelet adhesion on bare collagen surfaces. To analyze platelet-endothelial dynamics that will act as a robust readout of physiologically-relevant clotting, an automated imaging program creates an image time-series, K(x, y, t), containing a 10-frame panorama in space. Images are acquired at a frame rate of 2 panoramic images per minute, for a total time of 15 minutes. A non-dimensional stochastic index is derived to quantitate platelet endothelial dynamics (“P-E”), which is the interpercentile range of a coefficient of variance of the image time-series: P-E=range(CV(K(x,y,t) (1) A feature of this analytical readout is that instead of an “ensemble averaging,” the method incorporates the cell-surface interactions at the pixel level and quantitates statistical “dispersion” of interactions.
(§2) After plasma treatment of the microfluidic devices, the two chambers are pre-treated with 10% (3-aminopropyl)-trimethoxysilane (APTMES, e.g., from Sigma) in 100% anhydrous alcohol (e.g., from Sigma) for 10-20 minutes. The chambers are flushed sequentially with 70% ethanol in water and 100% ethanol, and then dried at 60-80° C. for two hours. Then, a mixture of rat tail collagen I (100 μg ml^−1 in PBS, from BD Biosciences) and fibronectin (e.g., 30 μg/ml in PBSm, from BD Biosciences) is introduced in both chambers of the microfluidic device. The microfluidic device is incubated at 37° C. for at least 2 hours before flushing with PBS or EGM-2 cell culture media.
(§3) Some of the microfluidic devices are used with collagen coating alone (without cells). In other devices, HUVECs (e.g. from Lonza) are cultured in Endothelial Growth Medium-2 (EGM-2, from Lonza) and used between certain passages. The cells (5-10×10^6 cells/ml) are introduced into the collagen-coated channels and incubated for 20 minutes at 37° C. to promote cell attachment before a second similar HUVEC suspension is, then, introduced. The microfluidic devices are incubated upside down for an additional 20 minutes to seed the cells on the ceiling and walls of the lower chamber.
The lower chamber is then flushed with EGM-2 and, then, a suspension of primary alveolar epithelial cells (e.g., from ScienCell Research Labs, Carlsbad, Calif.; 5-6×10^6 cells ml^−1) is introduced into the top chamber of the device. After a few hours, the top and bottom chambers are flushed with their respective media, and the microfluidic devices are incubated at 37° C. under 5% CO2 for 3 days (with media being replaced each day once). […]

C57BL/6J mice = assay: Mouse laser injury model of thrombosis and lung histology after LPS; assay type: in vivo
Protocol: In the above described techniques, C57BL/6J mice (about 8-12 weeks old) are used. For example, the mice are purchased from the Jackson Laboratory (Bar Harbor, Me.). Animal care and experimental procedures are performed in accordance with and under approval of the Beth Israel Deaconess Medical Center (“BIDMC”) Institutional Animal Care and Use Committee.
LPS is isolated from Escherichia coli serotype 0111:B4 (e.g., from Sigma-Aldrich, St Louis, Mo.). The anti-platelet antibody CD42b conjugated to Dylight649 is purchased, for example, from Emfret Analytics (Eibelstadt, Germany).
A laser-induced injury model of thrombosis is optionally used to monitor thrombosis formation in cremaster arterioles and venules in response to intraperitoneal injection of LPS (e.g., 10 mg kg^−1) or vehicle (e.g., physiological saline solution). Intravital microscopy of the cremaster microcirculation is performed, with injury to a cremaster arteriolar (e.g., 30-50 μm diameter) vessel wall being induced with a Micropoint Laser System (e.g., from Photonics Instruments, Chicago, Ill.). The Micropoint Laser System is focused through a microscope objective, parfocal with the focal plane and tuned to 440 nm. Data is captured digitally in a single fluorescence channel at 647/670 nm. Data acquisition is initiated both prior to and following a single laser pulse for each injury. Images are captured using a CCD camera (e.g., from Hamamatsu) at frame rates of 1/0.2 s^−1 and 1/0.5 s^−1, for a total of 240 seconds. The microscope system is controlled and images are analyzed using Slidebook (e.g., from Intelligent Imaging Innovations, Denver, Colo.). Anti-platelet antibodies re infused into the mice prior to vessel wall injury.
Histology Lungs are harvested in 4% paraformaldehyde. Following overnight incubation, lungs re transferred to 70% ethanol. Paraffin-embedded lungs are sectioned and stained with Hematoxylin and eosin […] or Masson's Trichome stain (MTS). This work is done by the histology and microscopy core at BIDMC.

[2] = tested on: primary alveolar epithelial cells (AE) and endothelial cells with whole blood; assay: Lung-on-a-chip stimulated with TNF-α or LPS: vascular ICAM-1, P-E, clots, gap junctions; assay type: cell-based, human
Description: as §1, §2, §3
The lower chamber is then flushed with EGM-2 and, then, a suspension of primary alveolar epithelial cells (e.g., from ScienCell Research Labs, Carlsbad, Calif.; 5-6×10^6 cells ml^−1) is introduced into the top chamber of the device. After a few hours, the top and bottom chambers are flushed with their respective media, and the microfluidic devices are incubated at 37° C. under 5% CO2 for 3 days (with media being replaced each day once). On day 4, the bottom vascular chamber is set on perfusion of EGM-2 media (e.g., 30 μL hr^−1; 0.5% fetal bovine serum) to provide shear to the HUVEC vessel chamber and a continuous supply of fresh media.
On day 6, the epithelial cell media in the top chamber is aspirated to create the air-liquid interface of the alveoli. Hereon, the cell culture continues for another 6-8 days, after which, in some cases, the top chamber is supplemented with 0, 5, or 100 ng ml^−1 TNF-α in PBS (e.g., from Sigma) overnight or LPS (e.g., 100 ng ml^−1 of E. Coli, from Sigma,) for 2 hours to cause cell activation. The LPS is sonicated in ultrasonic bath for about 20-30 minutes before introducing into the microfluidic device. After stimulation, the top chamber is clamped, the bottom chamber is rinsed with culture media, a reservoir cut from a 3 ml slip-tip syringe (e.g., from BD) is inserted on one end of the lower chamber, and a 1/16-inch male luer connector (e.g., from Qosina Corp) is inserted on the other end of the lower chamber.
When analyzing the formation of fibrin, blood samples re added with 15 μg ml^−1 of fluorescently labeled fibrinogen (e.g., Alexa 488 from Invitrogen). […]

Molecule | platelet-endothelial dynamics (P-E) ([1]; PM2 30 μM added to blood alone, AE side stimulated with LPS) | clotting and platelet-endothelial dynamics (P-E) ([1]; PM2 30 μM added to endothelial cell culture medium, AE side stimulated with LPS 100 ng/ml) | P-E and thrombotic activity ([1]; PM2 added to both endothelium and platelets, AE side stimulated with LPS) | overall effect of PM2 in LPS-stimulated lung-on-a-chip ([1]; model of acute lung dysfunction, whole blood perfusion) | lung histology (C57BL/6J mice; LPS injection) | increase in P-E in cremaster artery and vein (C57BL/6J mice; laser injury plus LPS) | platelet-endothelial interactions / thrombosis in cremaster artery or vein (C57BL/6J mice; systemic LPS alone (10 mg kg^-1 intraperitoneal)) | platelet-endothelial dynamics (P-E) ([2]; LPS in the absence of AE) | gap junctions ([2]; LPS in the presence of AE) | thrombus formation ([2]; LPS stimulation of endothelium alone) | endothelial inflammation (vascular ICAM-1) ([2]; LPS stimulation over the AE) | platelet-endothelial dynamics (P-E) ([2]; LPS stimulation over the AE) | thrombus formation (platelet aggregates, fibrin) in the lumen ([2]; LPS-stimulated device containing AE) | gap junctions ([2]; blood vessel alone stimulated with LPS) | vascular ICAM-1 ([2]; blood vessel alone stimulated with LPS for 2 hours (no AE))
CCCC(=O)Nc1cccc(NC(=O)c2ccccc2Br)c1 [PM2, parmodulin 2] | reduction of P-E | no significant clotting occurs | completely inhibits the P-E and thrombotic activity | endothelial cytoprotective effect; also recorded: cytoprotective and anti-thrombotic effect |  |  |  |  |  |  |  |  |  |  | 
lipopolysaccharide [LPS] |  |  |  |  | lung injury and pulmonary thrombosis; also recorded: causes clotting in the lung | further exacerbated | does not induce any platelet-endothelial interactions; also recorded: does not cause thrombosis in a cremaster artery or vein | near absent | significantly increase | does not cause thrombus formation | inflamed | significantly increases | large platelet aggregates are formed along with significant fibrin in the lumen; also recorded: vascular dysfunction and rapid clotting | not affected | no significant increase in ICAM-1
